# Measured values from PMC6394493 (Cancer Chemotherapy and Pharmacology, 2018).
# Assay: Safety assessment: adverse events
# Format: in vivo, Japanese patients
# Conditions: for Blood alkaline phosphatase increased, All grades / Blood alkaline phosphatase increased, Grade ¾ / Cancer pain, All grades / Cancer pain, Grade ¾ / Decreased appetite, All grades / Decreased appetite, Grade ¾ / Diarrhea, All grades / Diarrhea, Grade ¾ / Dysgeusia, All grades / Dysgeusia, Grade ¾ / Fatigue, All grades / Fatigue, Grade ¾ / Leukopenia, All grades / Leukopenia, Grade ¾ / Lymphopenia, All grades / Lymphopenia, Grade ¾ / Nausea, All grades / Nausea, Grade ¾ / Neutropenia, All grades / Neutropenia, Grade ¾ / Pyrexia, All grades / Pyrexia, Grade ¾ / Rash, All grades / Rash, Grade ¾ / Stomatitis, All grades / Stomatitis, Grade ¾ / Thrombocytopenia, All grades / Thrombocytopenia, Grade ¾ / Vomiting, All grades / Vomiting, Grade ¾ / AEs Total, All grades / AEs Total, Grade ¾ / Alanine aminotransferase increased, All grades / Alanine aminotransferase increased, Grade ¾: regardless of study drug relationship
# Excerpt: Safety assessments consisted of monitoring and recording of all AEs, including laboratory abnormalities and vital signs. DLTs were defined as an AE or a laboratory abnormality assessed as related to the study drug and occurring within the first 28 days of treatment (Cycle 1), as defined in Supplemental Table S1.
compound,measurement,setting,value
Cn1c(=O)n(-c2ccc(C(C)(C)C#N)cc2)c2c3cc(-c4cnc5ccccc5c4)ccc3ncc21 [BEZ235],"Blood alkaline phosphatase increased, All grades",qd 1000 mg (n = 8),2 (25.0) n (%)
same,"Blood alkaline phosphatase increased, Grade ¾",qd 1000 mg (n = 8),0 n (%)
same,"Cancer pain, All grades",qd 1000 mg (n = 8),2 (25.0) n (%)
same,"Cancer pain, Grade ¾",qd 1000 mg (n = 8),0 n (%)
same,"Decreased appetite, All grades",qd 1000 mg (n = 8),7 (87.5) n (%)
same,"Decreased appetite, Grade ¾",qd 1000 mg (n = 8),0 n (%)
same,"Diarrhea, All grades",qd 1000 mg (n = 8),7 (87.5) n (%)
same,"Diarrhea, Grade ¾",qd 1000 mg (n = 8),0 n (%)
same,"Dysgeusia, All grades",qd 1000 mg (n = 8),2 (25.0) n (%)
same,"Dysgeusia, Grade ¾",qd 1000 mg (n = 8),0 n (%)
same,"Fatigue, All grades",qd 1000 mg (n = 8),6 (75.0) n (%)
same,"Fatigue, Grade ¾",qd 1000 mg (n = 8),1 (12.5) n (%)
same,"Leukopenia, All grades",qd 1000 mg (n = 8),2 (25.0) n (%)
same,"Leukopenia, Grade ¾",qd 1000 mg (n = 8),1 (12.5) n (%)
same,"Lymphopenia, All grades",qd 1000 mg (n = 8),2 (25.0) n (%)
same,"Lymphopenia, Grade ¾",qd 1000 mg (n = 8),2 (25.0) n (%)
same,"Nausea, All grades",qd 1000 mg (n = 8),7 (87.5) n (%)
same,"Nausea, Grade ¾",qd 1000 mg (n = 8),0 n (%)
same,"Neutropenia, All grades",qd 1000 mg (n = 8),1 (12.5) n (%)
same,"Neutropenia, Grade ¾",qd 1000 mg (n = 8),1 (12.5) n (%)
same,"Pyrexia, All grades",qd 1000 mg (n = 8),2 (25.0) n (%)
same,"Pyrexia, Grade ¾",qd 1000 mg (n = 8),0 n (%)
same,"Rash, All grades",qd 1000 mg (n = 8),5 (62.5) n (%)
same,"Rash, Grade ¾",qd 1000 mg (n = 8),1 (12.5) n (%)
same,"Stomatitis, All grades",qd 1000 mg (n = 8),3 (37.5) n (%)
same,"Stomatitis, Grade ¾",qd 1000 mg (n = 8),0 n (%)
same,"Thrombocytopenia, All grades",qd 1000 mg (n = 8),4 (50.0) n (%)
same,"Thrombocytopenia, Grade ¾",qd 1000 mg (n = 8),0 n (%)
same,"Vomiting, All grades",qd 1000 mg (n = 8),4 (50.0) n (%)
same,"Vomiting, Grade ¾",qd 1000 mg (n = 8),0 n (%)
same,"AEs Total, All grades",qd 1200 mg (n = 6),6 (100.0) n (%)
same,"AEs Total, Grade ¾",qd 1200 mg (n = 6),6 (100.0) n (%)
same,"Alanine aminotransferase increased, All grades",qd 1200 mg (n = 6),1 (16.7) n (%)
same,"Alanine aminotransferase increased, Grade ¾",qd 1200 mg (n = 6),0 n (%)
same,"Blood alkaline phosphatase increased, All grades",qd 1200 mg (n = 6),1 (16.7) n (%)
same,"Blood alkaline phosphatase increased, Grade ¾",qd 1200 mg (n = 6),1 (16.7) n (%)
same,"Cancer pain, All grades",qd 1200 mg (n = 6),1 (16.7) n (%)
same,"Cancer pain, Grade ¾",qd 1200 mg (n = 6),0 n (%)
same,"Decreased appetite, All grades",qd 1200 mg (n = 6),6 (100.0) n (%)
same,"Decreased appetite, Grade ¾",qd 1200 mg (n = 6),1 (16.7) n (%)
same,"Diarrhea, All grades",qd 1200 mg (n = 6),6 (100.0) n (%)
same,"Diarrhea, Grade ¾",qd 1200 mg (n = 6),0 n (%)
same,"Dysgeusia, All grades",qd 1200 mg (n = 6),3 (50.0) n (%)
same,"Dysgeusia, Grade ¾",qd 1200 mg (n = 6),0 n (%)
same,"Fatigue, All grades",qd 1200 mg (n = 6),4 (66.7) n (%)
same,"Fatigue, Grade ¾",qd 1200 mg (n = 6),2 (33.3) n (%)
same,"Leukopenia, All grades",qd 1200 mg (n = 6),1 (16.7) n (%)
same,"Leukopenia, Grade ¾",qd 1200 mg (n = 6),0 n (%)
same,"Lymphopenia, All grades",qd 1200 mg (n = 6),1 (16.7) n (%)
same,"Lymphopenia, Grade ¾",qd 1200 mg (n = 6),1 (16.7) n (%)
same,"Nausea, All grades",qd 1200 mg (n = 6),5 (83.3) n (%)
same,"Nausea, Grade ¾",qd 1200 mg (n = 6),0 n (%)
same,"Neutropenia, All grades",qd 1200 mg (n = 6),2 (33.3) n (%)
same,"Neutropenia, Grade ¾",qd 1200 mg (n = 6),0 n (%)
same,"Pyrexia, All grades",qd 1200 mg (n = 6),2 (33.3) n (%)
same,"Pyrexia, Grade ¾",qd 1200 mg (n = 6),0 n (%)
same,"Rash, All grades",qd 1200 mg (n = 6),1 (16.7) n (%)
same,"Rash, Grade ¾",qd 1200 mg (n = 6),1 (16.7) n (%)
same,"Stomatitis, All grades",qd 1200 mg (n = 6),6 (100.0) n (%)
same,"Stomatitis, Grade ¾",qd 1200 mg (n = 6),1 (16.7) n (%)
same,"Thrombocytopenia, All grades",qd 1200 mg (n = 6),0 n (%)
same,"Thrombocytopenia, Grade ¾",qd 1200 mg (n = 6),0 n (%)
same,"Vomiting, All grades",qd 1200 mg (n = 6),5 (83.3) n (%)
same,"Vomiting, Grade ¾",qd 1200 mg (n = 6),0 n (%)
same,"AEs Total, All grades",qd 1400 mg (n = 7),7 (100.0) n (%)
same,"AEs Total, Grade ¾",qd 1400 mg (n = 7),5 (71.4) n (%)
same,"Alanine aminotransferase increased, All grades",qd 1400 mg (n = 7),3 (42.9) n (%)
same,"Alanine aminotransferase increased, Grade ¾",qd 1400 mg (n = 7),1 (14.3) n (%)
same,"Blood alkaline phosphatase increased, All grades",qd 1400 mg (n = 7),2 (28.6) n (%)
same,"Blood alkaline phosphatase increased, Grade ¾",qd 1400 mg (n = 7),1 (14.3) n (%)
same,"Cancer pain, All grades",qd 1400 mg (n = 7),0 n (%)
same,"Cancer pain, Grade ¾",qd 1400 mg (n = 7),0 n (%)
same,"Decreased appetite, All grades",qd 1400 mg (n = 7),6 (85.7) n (%)
same,"Decreased appetite, Grade ¾",qd 1400 mg (n = 7),0 n (%)
same,"Diarrhea, All grades",qd 1400 mg (n = 7),7 (100.0) n (%)
same,"Diarrhea, Grade ¾",qd 1400 mg (n = 7),1 (14.3) n (%)
same,"Dysgeusia, All grades",qd 1400 mg (n = 7),2 (28.6) n (%)
same,"Dysgeusia, Grade ¾",qd 1400 mg (n = 7),0 n (%)
same,"Fatigue, All grades",qd 1400 mg (n = 7),4 (57.1) n (%)
same,"Fatigue, Grade ¾",qd 1400 mg (n = 7),0 n (%)
same,"Leukopenia, All grades",qd 1400 mg (n = 7),2 (28.6) n (%)
same,"Leukopenia, Grade ¾",qd 1400 mg (n = 7),1 (14.3) n (%)
same,"Lymphopenia, All grades",qd 1400 mg (n = 7),4 (57.1) n (%)
same,"Lymphopenia, Grade ¾",qd 1400 mg (n = 7),1 (14.3) n (%)
same,"Nausea, All grades",qd 1400 mg (n = 7),6 (85.7) n (%)
same,"Nausea, Grade ¾",qd 1400 mg (n = 7),0 n (%)
same,"Neutropenia, All grades",qd 1400 mg (n = 7),4 (57.1) n (%)
same,"Neutropenia, Grade ¾",qd 1400 mg (n = 7),3 (42.9) n (%)
same,"Pyrexia, All grades",qd 1400 mg (n = 7),0 n (%)
same,"Pyrexia, Grade ¾",qd 1400 mg (n = 7),0 n (%)
same,"Rash, All grades",qd 1400 mg (n = 7),4 (57.1) n (%)
same,"Rash, Grade ¾",qd 1400 mg (n = 7),0 n (%)
same,"Stomatitis, All grades",qd 1400 mg (n = 7),5 (71.4) n (%)
same,"Stomatitis, Grade ¾",qd 1400 mg (n = 7),0 n (%)
same,"Thrombocytopenia, All grades",qd 1400 mg (n = 7),3 (42.9) n (%)
same,"Vomiting, All grades",qd 1400 mg (n = 7),5 (71.4) n (%)
same,"Vomiting, Grade ¾",qd 1400 mg (n = 7),0 n (%)
same,"AEs Total, All grades",qd All patients (N = 27),27 (100.0) n (%)
same,"AEs Total, Grade ¾",qd All patients (N = 27),18 (66.7) n (%)
same,"Alanine aminotransferase increased, All grades",qd All patients (N = 27),6 (22.2) n (%)
same,"Alanine aminotransferase increased, Grade ¾",qd All patients (N = 27),1 (3.7) n (%)
same,"Blood alkaline phosphatase increased, All grades",qd All patients (N = 27),6 (22.2) n (%)
same,"Blood alkaline phosphatase increased, Grade ¾",qd All patients (N = 27),2 (7.4) n (%)
same,"Cancer pain, All grades",qd All patients (N = 27),7 (25.9) n (%)
same,"Cancer pain, Grade ¾",qd All patients (N = 27),1 (3.7) n (%)
same,"Decreased appetite, All grades",qd All patients (N = 27),24 (88.9) n (%)
same,"Decreased appetite, Grade ¾",qd All patients (N = 27),1 (3.7) n (%)
same,"Diarrhea, All grades",qd All patients (N = 27),25 (92.6) n (%)
same,"Diarrhea, Grade ¾",qd All patients (N = 27),1 (3.7) n (%)
same,"Dysgeusia, All grades",qd All patients (N = 27),8 (29.6) n (%)
same,"Dysgeusia, Grade ¾",qd All patients (N = 27),0 n (%)
same,"Fatigue, All grades",qd All patients (N = 27),17 (63.0) n (%)
same,"Fatigue, Grade ¾",qd All patients (N = 27),3 (11.1) n (%)
same,"Leukopenia, All grades",qd All patients (N = 27),6 (22.2) n (%)
same,"Leukopenia, Grade ¾",qd All patients (N = 27),2 (7.4) n (%)
same,"Lymphopenia, All grades",qd All patients (N = 27),10 (37.0) n (%)
same,"Lymphopenia, Grade ¾",qd All patients (N = 27),7 (25.9) n (%)
same,"Nausea, All grades",qd All patients (N = 27),22 (81.5) n (%)
same,"Nausea, Grade ¾",qd All patients (N = 27),0 n (%)
same,"Neutropenia, All grades",qd All patients (N = 27),8 (29.6) n (%)
same,"Neutropenia, Grade ¾",qd All patients (N = 27),4 (14.8) n (%)
same,"Pyrexia, All grades",qd All patients (N = 27),6 (22.2) n (%)
same,"Pyrexia, Grade ¾",qd All patients (N = 27),0 n (%)
same,"Rash, All grades",qd All patients (N = 27),11 (40.7) n (%)
same,"Rash, Grade ¾",qd All patients (N = 27),2 (7.4) n (%)
same,"Stomatitis, All grades",qd All patients (N = 27),18 (66.7) n (%)
same,"Stomatitis, Grade ¾",qd All patients (N = 27),1 (3.7) n (%)
same,"Thrombocytopenia, All grades",qd All patients (N = 27),8 (29.6) n (%)
same,"Thrombocytopenia, Grade ¾",qd All patients (N = 27),3 (11.1) n (%)
same,"Vomiting, All grades",qd All patients (N = 27),17 (63.0) n (%)
same,"Vomiting, Grade ¾",qd All patients (N = 27),0 n (%)
same,patients with study drug-related serious adverse events (SAEs),qd dosing group,two
same,patients with Grade 3 or 4 AEs,"qd dosing, 18 patients",66.7%
same,grade 3 or 4 lymphopenia suspected to be study drug-related,"qd group, four patients",14.8%
same,study drug discontinuation due to AEs,"qd group, seven patients",25.9%
same,grade 3 or 4 fatigue suspected to be study drug-related,"qd group, three patients",11.1%
same,grade 3 or 4 neutropenia suspected to be study drug-related,"qd group, three patients",11.1%
same,grade 3 or 4 rash suspected to be study drug-related,"qd group, two patients",7.4%
same,grade 3 or 4 thrombocytopenia suspected to be study drug-related,"qd group, two patients",7.4%
